This note sets out measurements from PubChem BioAssay AID192 (DTP/NCI, 2004).

SMILES strings stand for the structures. Where “and” joins values, the source holds several entries; their conditions need not be identical. Identical values can stand only once. Inconclusive results and toxic doses are left out.

The test relates to BDF1 mice, B16 melanoma ip, median survival T/C. The test is described as follows: NCI In Vivo Anticancer Drug Screen. Data for tumor model B16 Melanoma (intraperitoneal) in B6D2F1 (BDF1) mice. To be noted: endpoint: median survival time, higher = longer survival. The method, boiled down:
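Tumor-bearing mice received test compound or vehicle. Survival or tumor size was then measured in both groups. The treated-group figure was divided by the control-group figure.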

The mark [1] stands for this setting: dose: 5.0 mg/kg/injection, schedule: Q01DX009 (ip), vehicle: Klucel (hydroxypropylcellulose) (HPC).
The mark [2] stands for this setting: dose: 6.25 mg/kg/injection, schedule: Q01DX009 (ip), vehicle: saline.
The mark [3] stands for this setting: dose: 12.5 mg/kg/injection, schedule: Q01DX009 (ip), vehicle: saline.
[4] abbreviates: dose: 25.0 mg/kg/injection, schedule: Q01DX009 (ip), vehicle: saline.
[5] abbreviates: dose: 50.0 mg/kg/injection, schedule: Q01DX009 (ip), vehicle: saline.

As for `Cc1ccc(NS(=O)(=O)c2cccc([N+](=O)[O-])c2)cc1Cl`, the T/C is 107 % of control (dose: 100.0 mg/kg/injection, schedule: Q01DX009 (ip), vehicle: saline with Tween-80); 105 % of control (dose: 200.0 mg/kg/injection, schedule: Q01DX009 (ip), vehicle: saline with Tween-80); 96 % of control (dose: 400.0 mg/kg/injection, schedule: Q01DX009 (ip), vehicle: saline with Tween-80).
On to `O=C1c2ccccc2C(Cl)=C(Cl)C1(Cl)Cl`, for which the T/C by setting is: (dose: 12.5 mg/kg/injection, schedule: Q04DX003 (ip), vehicle: Klucel (hydroxypropylcellulose) (HPC)) 87 % of control; (dose: 25.0 mg/kg/injection, schedule: Q04DX003 (ip), vehicle: Klucel (hydroxypropylcellulose) (HPC)) 92 % of control.
Regarding `COc1cccc2c1C(=O)c1c(O)c3c(c(O)c1C2=O)C[C@@](O)(C(=O)CO)C[C@@H]3OC1CC(N2CCOCC2C#N)C(O)C(C)O1` (some centres not stated), the T/C (dose: 37.5 micrograms/kg/injection, schedule: Q01DX001 (ip), vehicle: water) was 161 % of control.
Regarding `Cc1[nH]c(=O)[nH]c(=O)c1N(CCF)CCCl`, the T/C by setting is: (dose: 1.8 mg/kg/injection, schedule: Q01DX009 (ip), vehicle: saline with Tween-80) 110 % of control; (dose: 3.0 mg/kg/injection, schedule: Q01DX009 (ip), vehicle: saline with Tween-80) 110 % of control; under setting [1], 100 % of control; (dose: 8.0 mg/kg/injection, schedule: Q01DX009 (ip), vehicle: acid diluted with saline) 123 % of control; (dose: 14.0 mg/kg/injection, schedule: Q01DX009 (ip), vehicle: saline with Tween-80) 165 % of control; (dose: 16.0 mg/kg/injection, schedule: Q01DX009 (ip), vehicle: saline with Tween-80) 121 % of control. Also, the T/C (dose: 16.0 mg/kg/injection, schedule: Q04DX003 (ip), vehicle: acid diluted with saline) was 107 % of control; the T/C (dose: 16.0 mg/kg/injection, schedule: Q04DX003 (ip), vehicle: saline with Tween-80) is 123 % of control; the T/C (dose: 32.0 mg/kg/injection, schedule: Q04DX003 (ip), vehicle: acid diluted with saline) was 118 % of control; the T/C (dose: 32.0 mg/kg/injection, schedule: Q04DX003 (ip), vehicle: saline with Tween-80) was 180 % of control.
With `CC(N)C(O)c1cccc(O)c1` (configuration not stated), the T/C was 94 % of control under setting [2], 102 % of control under setting [3], 105 % of control under setting [4] and 100 % of control under setting [5].
With `NC(N)=NC1CCCC1`, the T/C is 97 % of control under setting [3], 114 % of control under setting [4] and 98 % of control under setting [5].
On to `CCNc1nc(NC(C)C)nc(OC)n1`, for which the T/C by setting is: (dose: 6.25 mg/kg/injection, schedule: Q01DX009 (ip), vehicle: saline with Tween-80) 113 % of control; (dose: 12.5 mg/kg/injection, schedule: Q01DX009 (ip), vehicle: saline with Tween-80) 108 % of control; (dose: 25.0 mg/kg/injection, schedule: Q01DX009 (ip), vehicle: saline with Tween-80) 110 % of control.
For the compound `CN(C)CCOC(c1ccccc1)c1ccccc1`, the T/C runs as follows: (dose: 3.12 mg/kg/injection, schedule: Q01DX009 (ip), vehicle: saline) 86 % of control; under setting [2], 100 % of control; under setting [3], 100 % of control.
Take `O`: the T/C was 96 % of control under setting [2]; 112 % of control under setting [3]; 95 % of control (dose: 18.75 mg/kg/injection, schedule: Q04DX003 (ip), vehicle: saline); 93 % of control under setting [4]; 97 % of control (dose: 37.5 mg/kg/injection, schedule: Q04DX003 (ip), vehicle: saline); 97 % of control (dose: 100.0 mg/kg/injection, schedule: Q02DX009 (ip), vehicle: saline). Also, the T/C by setting is: (dose: 200.0 mg/kg/injection, schedule: Q02DX009 (ip), vehicle: saline) 100 % of control; (dose: 400.0 mg/kg/injection, schedule: Q02DX009 (ip), vehicle: saline) 96 % of control; (dose: 600.0 mg/kg/injection, schedule: Q02DX009 (ip), vehicle: saline) 103 % of control.
For the compound `O=C(COc1ccc(Cl)cc1)Nc1cccc(C(F)(F)F)c1`, the T/C is, setting by setting: under setting [1], 117 % of control; (dose: 9.4 mg/kg/injection, schedule: Q01DX009 (ip), vehicle: saline with Tween-80) 93 % of control; (dose: 10.0 mg/kg/injection, schedule: Q01DX009 (ip), vehicle: Klucel (hydroxypropylcellulose) (HPC)) 101 % of control; (dose: 37.5 mg/kg/injection, schedule: Q01DX009 (ip), vehicle: saline with Tween-80) 90 % of control and 91 % of control.
